One test relates to TNF. As to the kind of experiment: PBMC assay: TNF cytokine levels in LPS-stimulated human PBMCs (MSD). The class given is cell-based. To be noted: 100 ng/ml LPS for 6 hrs, TNF in supernatant via MSD. On the procedure:
(§1) Peripheral venous blood was collected from healthy individuals and human peripheral blood mononuclear cells (PBMCs) were isolated from blood by Ficoll-Histopaque (Sigma-Aldrich, A0561) density gradient centrifugation. After isolation, PBMCs were stored in liquid nitrogen for later use. Upon thawing, PBMC cell viability was determined in growth medium (RPMI media supplemented with 10% fetal bovine serum, 1% Pen-Strep and 1% L-glutamine). Compounds were spotted in a 1:3 serial dilution in DMSO and diluted to the final concentration in 30 μl medium in 96 well plates (Falcon, 353072). PBMCs were added at a density of 7.5×10^4 cells per well and incubated for 30 min in a 5% CO2 incubator at 37° C. LPS stimulation was performed by addition of 100 ng/ml LPS (final concentration, Invivogen, tlrl-smlps) for 6 hrs followed by collection of cellular supernatant and the analysis of IL-1β (μM) and TNF cytokines levels (μM) via MSD technology according to manufacturers' guidelines (MSD, K151A0H).
The IC50 values (for IL-1β) and EC50 values (TNF) were obtained on compounds of the invention/examples, and are depicted in the following table: […]

The next test concerns NLRP3 inflammasome. As to the kind of experiment: PBMC assay: IL-1β in LPS-stimulated human PBMCs (MSD). The class given is cell-based. To be noted: human PBMCs, 100 ng/ml LPS for 6 hrs, IL-1β in supernatant via MSD, read-out: IL1β IC50. On the procedure:
The activity of a compound according to the present invention can be assessed by in vitro methods.
as §1, with “Compounds were spotted in a 1:3 serial dilution in DMSO and diluted to the final concentration in 30 μl medium in 96 well plates (Falcon, 353072).” left out

Regarding `CCc1cc2c(=O)n(CC(=O)Nc3ccncn3)nc(C(C)C)n2n1` [Final Cpd 1, 2-(2-ethyl-7-isopropyl-4-oxo-pyrazolo[1,5-d][1,2,4]triazin-5-yl)-N-pyrimidin-4-yl-acetamide], the concentration for a half-maximal effect (EC50) (as a rule, the midpoint of the concentration-response curve) in the test on TNF was above 10000 nM. For the same molecule, the IC50 (usually the concentration needed to halve the response being measured) with NLRP3 inflammasome worked out at 340 nM.
On the same counts, the results for `CC(C)c1nn(CC(=O)Nc2ccncn2)c(=O)c2cc(I)nn12` [Final Cpd 2, 2-(2-iodo-7-isopropyl-4-oxo-pyrazolo[1,5-d][1,2,4]triazinyl)-N-pyrimidin-4-yl-acetamide] are above 10000 nM and below 120 nM.
On the same counts, the results for `CC(C)c1cc2c(=O)n(CC(=O)Nc3ccncn3)nc(C(C)C)n2n1` [Final Cpd 3] are above 10000 nM and 280 nM.
In turn, `CCc1nn(CC(=O)Nc2ccncn2)c(=O)c2cc(I)nn12` [Final Cpd 4, 2-(7-ethyl-2-iodo-4-oxo-pyrazolo[1,5-d][1,2,4]triazin-5-yl)-N-pyrimidin-4-yl-acetamide] came in with an EC50 in the test with TNF above 10000 nM. For the same molecule, in the test on NLRP3 inflammasome, the IC50 was 290 nM.
On to `CCc1nn(CC(=O)Nc2ccc3nncn3c2)c(=O)c2cc(I)nn12` [Final Cpd 6], for which the EC50 in the test with TNF is above 10000 nM. Also, in the test with NLRP3 inflammasome, the IC50 turned out to be 230 nM.
On the same counts, the results for `CCc1nn(CC(=O)N[C@H]2C[C@@](C)(O)C2)c(=O)c2cc(I)nn12` [Final Cpd 7] are above 10000 nM and 600 nM.
The molecule `CC(C)c1nn(CC(=O)N[C@H]2C[C@@](C)(O)C2)c(=O)c2cc(C3CC3)nn12` [Final Cpd 8] came in with an EC50 in the test with TNF above 10000 nM. In addition, in the test on NLRP3 inflammasome, the half-maximal inhibitory concentration (IC50) came out at 240 nM.
In turn, `CC(C)c1nn(CC(=O)N[C@@H]2CCCN(C3CCC3)C2)c(=O)c2cc(C3CC3)nn12` [Final Cpd 9] gave an EC50 with TNF above 10000 nM. The IC50 with NLRP3 inflammasome was below 120 nM.
In the same order, the values of `CCc1nn(CC(=O)Nc2ccncn2)c(=O)c2cc(C3CC3)nn12` [Final Cpd 10, 2-(2-cyclopropyl-7-ethyl-4-oxo-pyrazolo[1,5-d][1,2,4]triazin-5-yl)-N-pyrimidin-4-yl-acetamide] are above 10000 nM and 640 nM.
The molecule `CC(C)c1nn(CC(=O)Nc2ccncn2)c(=O)c2cc(C3CC3)nn12` [Final Cpd 11] registered an EC50 in the test with TNF above 10000 nM. In addition, the half-maximal inhibitory concentration (IC50) with NLRP3 inflammasome was found to be 170 nM.
`CCCc1cc2c(=O)n(CC(=O)Nc3ccncn3)nc(C(C)C)n2n1` [Final Cpd 12] had an EC50 in the test on TNF above 10000 nM. In addition, in the test with NLRP3 inflammasome, the IC50 is 600 nM.
On the same counts, the results for `CCc1cc2c(=O)n(CC(=O)Nc3ccncn3)nc(CC)n2n1` [Final Cpd 13] are above 10000 nM and 1710 nM.
Molecule `CCc1nn(CC(=O)Nc2ccncn2)c(=O)c2cc(C)nn12` [Final Cpd 14] gave an EC50 in the test with TNF above 10000 nM. For the same molecule, the IC50 in the test with NLRP3 inflammasome amounted to 8110 nM.
On the same counts, the results for `CCCc1cc2c(=O)n(CC(=O)Nc3ccncn3)nc(CC)n2n1` [Final Cpd 15] are above 10000 nM and 2400 nM.
In the same order, the values of `CCc1nn(CC(=O)Nc2ccncn2)c(=O)c2cc(C(C)C)nn12` [Final Cpd 16] are above 10000 nM and 840 nM.
On the same counts, the results for `Cc1cc2c(=O)n(CC(=O)Nc3ccncn3)nc(C(C)C)n2n1` [Final Cpd 17] are above 10000 nM and 1100 nM.
In the test on TNF, `CNc1cc2c(=O)n(CC(=O)Nc3ccncn3)nc(C(C)C)n2n1` [Final Cpd 18, 2-[7-isopropyl-2-(methylamino)-4-oxo-pyrazolo[1,5-d] [1,2,4]triazin-5-yl]—N-pyrimidin-4-yl-acetamide] returned an EC50 above 10000 nM. Also, in the test on NLRP3 inflammasome, the IC50 turned out to be 160 nM.
In the same order, the values of `CCc1nn(CC(=O)Nc2ccncn2)c(=O)c2cc(NC)nn12` [Final Cpd 20] are above 10000 nM and 1140 nM.
In turn, `CC(C)c1nn(CC(=O)Nc2ccncn2)c(=O)c2cc(N3CCC3)nn12` [Final Cpd 21] displayed a half-maximal effective concentration (EC50) with TNF above 10000 nM. The IC50 in the test on NLRP3 inflammasome came out at 2750 nM.
In the test with TNF, `CC(C)c1nn(CC(=O)Nc2ccncn2)c(=O)c2cc(N(C)C)nn12` [Final Cpd 22] returned an EC50 above 10000 nM. Besides, the 50% inhibitory concentration (IC50) with NLRP3 inflammasome is 1350 nM.
The molecule `CC(C)c1nn(CC(=O)Nc2ccc3nncn3c2)c(=O)c2cc(I)nn12` [Final Cpd 23] came in with an EC50 in the test on TNF above 10000 nM. For the same molecule, the IC50 with NLRP3 inflammasome turned out to be 55 nM.
Consider `CC(C)c1nn(CC(=O)N[C@H]2C[C@@](C)(O)C2)c(=O)c2cc(I)nn12` [Final Cpd 24], for which, in the test on TNF, the EC50 was above 10000 nM. Also, the IC50 with NLRP3 inflammasome was found to be 110 nM.
In the same order, the values of `CC(C)c1nn(CC(=O)NC2CCC(=O)N(CC3CC3)C2)c(=O)c2cc(C3CC3)nn12` (stereo not shown) [Final Cpd 25] are above 10000 nM and 2340 nM.
In the same order, the values of `CC(C)c1nn(CC(=O)N[C@@H]2CCC(=O)N(CC3CC3)C2)c(=O)c2cc(C3CC3)nn12` [Final Cpd 26] are above 10000 nM and above 10000 nM.
In the same order, the values of `CC(C)c1nn(CC(=O)N[C@H]2CCC(=O)N(CC3CC3)C2)c(=O)c2cc(C3CC3)nn12` [Final Cpd 27] are above 10000 nM and 990 nM.
For the molecule `CC(C)c1nn(CC(=O)Nc2ccc(=O)n(C)c2)c(=O)c2cc(C3CC3)nn12` [Final Cpd 28], the EC50 with TNF is above 10000 nM. The IC50 in the test with NLRP3 inflammasome is 380 nM.
In the same order, the values of `CC(C)c1nn(CC(=O)NC2CCC(=O)N(C)C2)c(=O)c2cc(C3CC3)nn12` (stereo not shown) [Final Cpd 29] are above 10000 nM and 1790 nM.
For the molecule `CC(C)c1nn(CC(=O)N[C@@H]2CCC(=O)N(C)C2)c(=O)c2cc(C3CC3)nn12` [Final Cpd 30], the EC50 in the test with TNF is above 10000 nM. The IC50 with NLRP3 inflammasome turned out to be 1430 nM.
In the same order, the values of `CC(C)c1nn(CC(=O)N[C@H]2CCC(=O)N(C)C2)c(=O)c2cc(C3CC3)nn12` [Final Cpd 31] are above 10000 nM and 690 nM.
On the same counts, the results for `CC(C)c1nn(CC(=O)Nc2ccnnc2)c(=O)c2cc(C3CC3)nn12` [Final Cpd 32] are above 10000 nM and 150 nM.
Regarding `CC(C)c1nn(CC(=O)N[C@@H]2CCOC[C@@H]2O)c(=O)c2cc(C3CC3)nn12` [Final Cpd 33], the EC50 in the test on TNF is above 10000 nM. Further, the IC50 with NLRP3 inflammasome stood at 1560 nM.
Molecule `CC(C)c1nn(CC(=O)N[C@H]2CN(C(=O)OC(C)(C)C)CC[C@H]2O)c(=O)c2cc(C3CC3)nn12` [Final Cpd 34] registered an EC50 with TNF above 10000 nM. Besides, the IC50 with NLRP3 inflammasome worked out at 5660 nM.
In turn, `CC(C)c1nn(CC(=O)Nc2ccc(=O)n(CC3CC3)c2)c(=O)c2cc(C3CC3)nn12` [Final Cpd 35] showed an EC50 in the test with TNF above 10000 nM. The IC50 with NLRP3 inflammasome came out at 380 nM.
On the same counts, the results for `CC(C)c1nn(CC(=O)NC2CCOCC2)c(=O)c2cc(C3CC3)nn12` [Final Cpd 36] are above 10000 nM and 970 nM.
For the molecule `CCOC(=O)C1CC(Cc2cc3c(=O)n(CC(=O)Nc4ccnnc4)nc(C(C)C)n3n2)C1` (stereo not shown) [Final Cpd 177, ethyl 3-((7-isopropyl-4-oxo-5-(2-oxo-2-(pyridazin-4-ylamino)ethyl)-4,5-dihydropyrazolo[1,5-d][1,2,4]triazin-2-yl)methyl)cyclobutane-1-carboxylate], in the test with NLRP3 inflammasome, the IC50 was found to be 2060 nM.
As to `CC(C)c1nn(CC(=O)N[C@H]2CN(C3CCC3)CC[C@H]2O)c(=O)c2cc(C3CC3)nn12` [Final Cpd 191, N-((3 S,4R)-1-cyclobutyl-4-hydroxypiperidin-3-yl)-2-(2-cyclopropyl-7-isopropyl-4-oxopyrazolo[1,5-d][1,2,4]triazin-5(4H)-yl)acetamide], the EC50 in the test with TNF was above 10000 nM.
